Data on two molecules can be found in US10227358B2, “Hydroxyester derivatives, a process for their preparation and pharmaceutical compositions containing them” (LES LABORATOIRES SERVIER, priority 2015, dated 2019).

Molecules are shown by their SMILES.

In general, IC50 refers to the midpoint of a concentration-inhibition curve.

One experiment deals with Mcl-1 protein (UniProtKB Q07820) (Homo sapiens, UniProt Q07820). Put plainly: Inhibition of Mcl-1 by the fluorescence polarisation technique. In kind it is binding. The note with it: fluorescein labelled ligand 1 nM, Mcl-1 protein 5 nM, ~2 hours at room temperature; read-out: IC50 (μM) Mcl-1 FP. Here is the method:
The relative binding potency of each compound was determined via Fluorescence Polarisation (FP). The method utilised a Fluorescein labelled ligand (Fluorescein-βAla-Ahx-A-REIGAQLRRMADDLNAQY-OH; mw 2,765) which binds to the Mcl-1 protein (such that Mcl-1 corresponds to the UniProtKB® primary accession number: Q07820) leading to an increased anisotropy measured in milli-polarisation (mP) units using a reader. The addition of a compound which binds competitively to the same site as the ligand will result in a greater proportion of unbound ligand in the system indicated by a decrease in mP units.
An 11 point serial dilution of each compound was prepared in DMSO and 2 μl transferred into flat bottomed, low binding, 384-well plate (final DMSO concentration 5%). 38 μl of buffer (10 mM 4-(2-hydroxyethyl)-1-piperazineethanesulfonic acid [HEPES], 150 mM NaCl, 0.05% Tween 20, pH 7.4), containing the Fluorescein labelled ligand (final concentration 1 nM) and Mcl-1 protein (final concentration 5 nM) was then added.
Assay plates were incubated ˜2 hours at room temperature before FP was measured on a […] Synergy2 reader (Ex. 528 nm, Em. 640 nm, Cut off 510 nm) and mP units calculated. The binding of increasing doses of test compound was expressed as a percentage reduction in mP compared to a window established between ‘5% DMSO only’ and ‘100% inhibition’ controls. 11-point dose response curves were plotted with XL-Fit software using a 4-Parameter Logistic Model (Sigmoidal Dose-Response Model) and the inhibitory concentrations that gave a 50% reduction in mP (IC50) were determined.
Background: In fluorescence polarisation assays a small probe gives low polarisation when free and higher when bound to something large.

The test system of experiment [1] is H929 multiple myeloma tumour line. Kind of experiment: In vitro cytotoxicity (MTT, Microculture Tetrazolium Assay). In kind it is cell-based. The note with it: Homo sapiens, NCI-H929; H929 cells, 48 hours exposure, cell viability. Here is the method: The cytotoxicity studies were carried out on the H929 multiple myeloma tumour line.
The cells are distributed onto microplates and exposed to the test compounds for 48 hours.
The cell viability is then quantified by a colorimetric assay, the Microculture Tetrazolium Assay (Cancer Res., 1987, 47, 939-942).

Mcl-1 protein, sequence (Q07820 whole entry): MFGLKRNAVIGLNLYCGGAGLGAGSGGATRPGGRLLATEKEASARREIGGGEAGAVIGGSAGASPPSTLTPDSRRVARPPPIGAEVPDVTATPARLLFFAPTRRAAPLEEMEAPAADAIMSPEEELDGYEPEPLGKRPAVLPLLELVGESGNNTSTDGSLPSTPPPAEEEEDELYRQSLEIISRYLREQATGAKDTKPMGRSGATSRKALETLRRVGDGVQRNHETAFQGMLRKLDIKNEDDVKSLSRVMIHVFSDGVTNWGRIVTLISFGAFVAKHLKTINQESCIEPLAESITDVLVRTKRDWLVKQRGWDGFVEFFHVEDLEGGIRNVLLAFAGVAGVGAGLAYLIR

`COc1ccccc1-c1nccc(COc2ccccc2C[C@@H](Oc2ncnc3sc(-c4ccc(F)cc4)c(-c4c(C)c(Cl)c(OCCN5CCN(C)CC5)c(Cl)c4C)c23)C(=O)OC(C)OC(=O)N(C)C)n1` (stereo partly drawn) [Example 17, 1-[(dimethylcarbamoyl)oxy]ethyl (2R)-2-{[5-{3,5-dichloro-2,6-dimethyl-4-[2-(4-methylpiperazin-1-yl)ethoxy]phenyl}-6-(4-fluorophenyl)thieno[2,3-d]pyrimidin-4-yl]oxy}-3-(2-{[2-(2-methoxyphenyl)pyrimidin-4-yl]methoxy}phenyl)propanoate]: the IC50 on Mcl-1 protein stood at 1.54 µM; in experiment [1] it was 0.702 µM.
For `COc1ccccc1-c1nccc(COc2ccccc2C[C@@H](Oc2ncnc3sc(-c4ccc(F)cc4)c(-c4c(C)c(Cl)c(OCCN5CCN(C)CC5)c(Cl)c4C)c23)C(=O)O)n1` [Preparation 13, (2R)-2-{[5-{3,5-dichloro-2,6-dimethyl-4-[2-(4-methylpiperazin-1-yl)ethoxy]phenyl}-6-(4-fluorophenyl)thieno[2,3-d]pyrimidin-4-yl]oxy}-3-(2-{[2-(2-methoxyphenyl)pyrimidin-4-yl]methoxy}phenyl)propanoic Acid], in that order: 0.00181 µM and 0.025 µM.
